Measured values: the NIST ThermoML archive (doi:10.1016/j.fluid.2009.09.015)

Key:
[1] = refractive index (Na D-line) (dimensionless); details: 298.15 K; 101.33 kPa; Liquid; ATAGO RX-5000 refractometer with Hero Therm thermostat
[2] = Liquid; for mass density: 298 K, Vibrating tube method; for mass density / viscosity: 101.33 kPa; for viscosity: 298.15 K, Capillary tube (Ostwald / Ubbelohde) method; for Normal boiling temperature: Ebulliometric method (Recirculating still)
[3] = xn = mol fraction of the nth substance listed; details: 298.15 K, 101 kPa, Liquid; for viscosity: Capillary tube (Ostwald / Ubbelohde) method; for mass density: Vibrating tube method
[4] = refractive index (Na D-line) (dimensionless); xn = mol fraction of the nth substance listed; details: 298.15 K, 101 kPa, Liquid, ATAGO RX-5000 refractometer with Hero Therm thermostat

CCCCCCCCn1cc[n+](C)c1.O=S(=O)([N-]S(=O)(=O)C(F)(F)F)C(F)(F)F
Details	mass density [kg/m3]	refractive index	viscosity [mPa·s]
[1]	–	1.43298	–
[2]	1320.59	–	92.51

CCCCCCCCn1cc[n+](C)c1.O=S(=O)([N-]S(=O)(=O)C(F)(F)F)C(F)(F)F + CC(=O)OC(C)C
Details	mass density, [3] [kg/m3]	refractive index, [4]	viscosity, [3] [mPa·s]
x2 = 0.0415	1314.43	1.43222	81.81
x2 = 0.0984	1305.77	1.4313	70.33
x2 = 0.1644	1294.72	1.43009	58.16
x2 = 0.2055	1287.14	1.42923	51.89
x2 = 0.301	1267.67	1.42702	38.25
x2 = 0.3956	1244.68	1.42458	26.57
x2 = 0.4996	1214.35	1.42091	17.09
x2 = 0.5837	1184.33	1.41742	11.42
x2 = 0.7048	1129.29	1.41083	5.785
x2 = 0.8036	1068.65	1.40324	2.993
x2 = 0.8991	988.94	1.39275	1.389

CCCCCCCCn1cc[n+](C)c1.O=S(=O)([N-]S(=O)(=O)C(F)(F)F)C(F)(F)F + CC(C)O
Details	mass density, [3] [kg/m3]	refractive index, [4]	viscosity, [3] [mPa·s]
x2 = 0.0331	1316.64	1.43251	85.24
x2 = 0.066	1312.4	1.43205	78.1
x2 = 0.105	1307.22	1.43149	71.48
x2 = 0.1823	1295.84	1.43031	60.13
x2 = 0.2732	1280.29	1.42862	47.98
x2 = 0.3284	1269.48	1.42746	39.87
x2 = 0.4097	1250.88	1.42551	33.13
x2 = 0.5055	1224.13	1.42269	24.79
x2 = 0.5848	1196.42	1.41988	19.09
x2 = 0.6747	1155.99	1.41568	13.79
x2 = 0.7832	1087.54	1.40856	8.606
x2 = 0.8966	972.52	1.39645	4.615

CC(=O)OC(C)C [1-methylethyl ethanoate]
Details	Normal boiling temperature [°C]	mass density [kg/m3]	refractive index	viscosity [mPa·s]
[1]	–	–	1.3748	–
[2]	88.30	866.21	–	0.481

CC(=O)OC(C)C [1-methylethyl ethanoate] + CC(C)O
Details	mass density, [3] [kg/m3]	refractive index, [4]	viscosity, [3] [mPa·s]
x1 = 0.1199	793.54	1.37417	1.278
x1 = 0.2041	802.03	1.37374	1.021
x1 = 0.294	810.58	1.37344	0.812
x1 = 0.3802	818.32	1.3733	0.722
x1 = 0.4855	827.39	1.37331	0.635
x1 = 0.5877	835.68	1.37339	0.563
x1 = 0.7138	845.52	1.37369	0.538
x1 = 0.7681	849.64	1.37383	0.515
x1 = 0.8777	857.56	1.37419	0.5

CC(C)O [propan-2-ol]
Details	Normal boiling temperature [°C]	mass density [kg/m3]	refractive index	viscosity [mPa·s]
[1]	–	–	1.37502	–
[2]	82.22	780.88	–	2.073
